In ChEMBL document CHEMBL3885881, “DrugMatrix”:

Species: Rattus norvegicus
Assay: DrugMatrix - Regimen: Daily Repeat
Type: toxicity, organism-based, Sprague-Dawley
Set-up: regimen Daily Repeat, gender Male, age 6-8 weeks
Conditions: in vivo, iv, vehicle 100 % SALINE; for ABSOLUTE BASOPHIL / ABSOLUTE EOSINOPHIL / ABSOLUTE LYMPHOCYTE / ABSOLUTE MONOCYTE / ABSOLUTE SEGMENTED NEUTROPHIL / BASOPHIL / EOSINOPHIL / ERYTHROCYTE COUNT / HEMATOCRIT / HEMOGLOBIN / LEUKOCYTE COUNT / LYMPHOCYTE / MEAN CORPUSCULAR HEMOGLOBIN / MEAN CORPUSCULAR HEMOGLOBIN CONCENTRATION / MEAN CORPUSCULAR VOLUME / MONOCYTE / NEUTROPHIL / NUCLEATED RED BLOOD CELLS / PLATELET COUNT: tissue Blood; for ALANINE AMINOTRANSFERASE / ALBUMIN / ALKALINE PHOSPHATASE / ASPARTATE AMINOTRANSFERASE / BLOOD UREA NITROGEN / CARBON DIOXIDE / CHLORIDE / CHOLESTEROL / CREATINE PHOSPHOKINASE / CREATININE / GLUCOSE / LACTATE DEHYDROGENASE / LIPASE / PHOSPHORUS / POTASSIUM / SODIUM / TOTAL BILIRUBIN / TOTAL PROTEIN / URIC ACID: tissue Plasma
[1] = 5 mg/kg, 72 h, dose level Low, time 3 day
[2] = 5 mg/kg, 120 h, dose level Low, time 5 day
[3] = 30 mg/kg, 72 h, dose level High, time 3 day
[4] = 30 mg/kg, 120 h, dose level High, time 5 day

## CNC1(c2ccccc2Cl)CCCCC1=O (configuration not stated) [KETAMINE]
[1]
  ABSOLUTE BASOPHIL: 0 CELLS/uL
  ABSOLUTE EOSINOPHIL: 51.33 CELLS/uL
  ABSOLUTE LYMPHOCYTE: 14067.33 CELLS/uL
  ABSOLUTE MONOCYTE: 102.67 CELLS/uL
  ABSOLUTE SEGMENTED NEUTROPHIL: 1912 CELLS/uL
  BASOPHIL: 0%
  EOSINOPHIL: 0.33%
  ERYTHROCYTE COUNT: 5.81 x10E6/uL
  HEMATOCRIT: 36.67%
  HEMOGLOBIN: 14.57 G/DL
  LEUKOCYTE COUNT: 16.13 x10E3/uL
  LYMPHOCYTE: 87%
  MEAN CORPUSCULAR HEMOGLOBIN: 25.1 pg
  MEAN CORPUSCULAR HEMOGLOBIN CONCENTRATION: 39.73 G/DL
  MEAN CORPUSCULAR VOLUME: 63.13 fL
  MONOCYTE: 0.67%
  NEUTROPHIL: 12%
  NUCLEATED RED BLOOD CELLS: 0 /100WBC
  PLATELET COUNT: 1224 x10E3/uL
  ALANINE AMINOTRANSFERASE: 65.67 u/L
  ALBUMIN: 4.37 G/DL
  ALKALINE PHOSPHATASE: 476.33 u/L
  ASPARTATE AMINOTRANSFERASE: 112 u/L
  BLOOD UREA NITROGEN: 16.67 mg/dL
  CARBON DIOXIDE: 24.33 mmol/L
  CHLORIDE: 102.33 MEQ/L
  CHOLESTEROL: 77 mg/dL
  CREATINE PHOSPHOKINASE: 659.67 u/L
  CREATININE: 0.19 mg/dL
  GLUCOSE: 151 mg/dL
  LACTATE DEHYDROGENASE: 281 u/L
  LIPASE: 8.67 u/L
  PHOSPHORUS: 13.03 mg/dL
  POTASSIUM: 6.82 MEQ/L
  SODIUM: 147.17 MEQ/L
  TOTAL BILIRUBIN: 0.2 mg/dL
  TOTAL PROTEIN: 6.1 G/DL
  URIC ACID: 1.77 mg/dL
[2]
  ABSOLUTE BASOPHIL: 0 CELLS/uL
  ABSOLUTE EOSINOPHIL: 0 CELLS/uL
  ABSOLUTE LYMPHOCYTE: 13962.33 CELLS/uL
  ABSOLUTE MONOCYTE: 431.67 CELLS/uL
  ABSOLUTE SEGMENTED NEUTROPHIL: 1839.33 CELLS/uL
  BASOPHIL: 0%
  EOSINOPHIL: 0%
  ERYTHROCYTE COUNT: 5.58 x10E6/uL
  HEMATOCRIT: 35.2%
  HEMOGLOBIN: 13.8 G/DL
  LEUKOCYTE COUNT: 16.23 x10E3/uL
  LYMPHOCYTE: 86%
  MEAN CORPUSCULAR HEMOGLOBIN: 24.77 pg
  MEAN CORPUSCULAR HEMOGLOBIN CONCENTRATION: 39.27 G/DL
  MEAN CORPUSCULAR VOLUME: 63.1 fL
  MONOCYTE: 2.67%
  NEUTROPHIL: 11.33%
  NUCLEATED RED BLOOD CELLS: 0 /100WBC
  PLATELET COUNT: 1165.33 x10E3/uL
  ALANINE AMINOTRANSFERASE: 62.33 u/L
  ALBUMIN: 4 G/DL
  ALKALINE PHOSPHATASE: 365.67 u/L
  ASPARTATE AMINOTRANSFERASE: 75.67 u/L
  BLOOD UREA NITROGEN: 16 mg/dL
  CARBON DIOXIDE: 23.67 mmol/L
  CHLORIDE: 103 MEQ/L
  CHOLESTEROL: 71 mg/dL
  CREATINE PHOSPHOKINASE: 194 u/L
  CREATININE: 0.14 mg/dL
  GLUCOSE: 158.33 mg/dL
  LACTATE DEHYDROGENASE: 81 u/L
  LIPASE: 8.33 u/L
  PHOSPHORUS: 11.53 mg/dL
  POTASSIUM: 6.9 MEQ/L
  SODIUM: 144.5 MEQ/L
  TOTAL BILIRUBIN: 0.2 mg/dL
  TOTAL PROTEIN: 6.03 G/DL
  URIC ACID: 1.43 mg/dL
[3]
  ABSOLUTE BASOPHIL: 0 CELLS/uL
  ABSOLUTE EOSINOPHIL: 0 CELLS/uL
  ABSOLUTE LYMPHOCYTE: 14382.67 CELLS/uL
  ABSOLUTE MONOCYTE: 155.33 CELLS/uL
  ABSOLUTE SEGMENTED NEUTROPHIL: 1995.33 CELLS/uL
  BASOPHIL: 0%
  EOSINOPHIL: 0%
  ERYTHROCYTE COUNT: 5.41 x10E6/uL
  HEMATOCRIT: 34.6%
  HEMOGLOBIN: 13.7 G/DL
  LEUKOCYTE COUNT: 16.53 x10E3/uL
  LYMPHOCYTE: 87.33%
  MEAN CORPUSCULAR HEMOGLOBIN: 25.3 pg
  MEAN CORPUSCULAR HEMOGLOBIN CONCENTRATION: 39.6 G/DL
  MEAN CORPUSCULAR VOLUME: 63.93 fL
  MONOCYTE: 1%
  NEUTROPHIL: 11.67%
  NUCLEATED RED BLOOD CELLS: 0 /100WBC
  PLATELET COUNT: 1095 x10E3/uL
  ALANINE AMINOTRANSFERASE: 62.67 u/L
  ALBUMIN: 4.23 G/DL
  ALKALINE PHOSPHATASE: 372.33 u/L
  ASPARTATE AMINOTRANSFERASE: 96.67 u/L
  BLOOD UREA NITROGEN: 17 mg/dL
  CARBON DIOXIDE: 19 mmol/L
  CHLORIDE: 101.67 MEQ/L
  CHOLESTEROL: 72.67 mg/dL
  CREATINE PHOSPHOKINASE: 366.67 u/L
  CREATININE: 0.23 mg/dL
  GLUCOSE: 202.67 mg/dL
  LACTATE DEHYDROGENASE: 284.33 u/L
  LIPASE: 10 u/L
  PHOSPHORUS: 13.57 mg/dL
  POTASSIUM: 5.66 MEQ/L
  SODIUM: 144.1 MEQ/L
  TOTAL BILIRUBIN: 0.2 mg/dL
  TOTAL PROTEIN: 6 G/DL
  URIC ACID: 2.03 mg/dL
[4]
  ABSOLUTE BASOPHIL: 0 CELLS/uL
  ABSOLUTE EOSINOPHIL: 79.33 CELLS/uL
  ABSOLUTE LYMPHOCYTE: 16271.33 CELLS/uL
  ABSOLUTE MONOCYTE: 278 CELLS/uL
  ABSOLUTE SEGMENTED NEUTROPHIL: 1271.33 CELLS/uL
  BASOPHIL: 0%
  EOSINOPHIL: 0.33%
  ERYTHROCYTE COUNT: 5.66 x10E6/uL
  HEMATOCRIT: 35.67%
  HEMOGLOBIN: 14 G/DL
  LEUKOCYTE COUNT: 17.9 x10E3/uL
  LYMPHOCYTE: 92%
  MEAN CORPUSCULAR HEMOGLOBIN: 24.8 pg
  MEAN CORPUSCULAR HEMOGLOBIN CONCENTRATION: 39.27 G/DL
  MEAN CORPUSCULAR VOLUME: 63.03 fL
  MONOCYTE: 1.33%
  NEUTROPHIL: 6.33%
  NUCLEATED RED BLOOD CELLS: 0 /100WBC
  PLATELET COUNT: 1154.33 x10E3/uL
  ALANINE AMINOTRANSFERASE: 51 u/L
  ALBUMIN: 4.2 G/DL
  ALKALINE PHOSPHATASE: 328.67 u/L
  ASPARTATE AMINOTRANSFERASE: 76.67 u/L
  BLOOD UREA NITROGEN: 16.33 mg/dL
  CARBON DIOXIDE: 22.67 mmol/L
  CHLORIDE: 105 MEQ/L
  CHOLESTEROL: 69.67 mg/dL
  CREATINE PHOSPHOKINASE: 264.33 u/L
  CREATININE: 0.2 mg/dL
  GLUCOSE: 179.33 mg/dL
  LACTATE DEHYDROGENASE: 119.67 u/L
  LIPASE: 8.67 u/L
  PHOSPHORUS: 12.4 mg/dL
  POTASSIUM: 6.35 MEQ/L
  SODIUM: 146.23 MEQ/L
  TOTAL BILIRUBIN: 0.17 mg/dL
  TOTAL PROTEIN: 6.1 G/DL
  URIC ACID: 1.3 mg/dL
